# Structures can show the parent of a compound that is named as a salt.
row,SMILES,melting point
1,"CCN1CCN(c2nc(-c3ccc(N4CCOCC4)nc3)cc3ccccc23)CC1 (as salt: hydrochloride) [Example 147, 1-(4-ethylpiperazin-1-yl)-3-[2-(morpholin-4-yl)pyridin-5-yl]isoquinoline trihydrochloride]",186 °C
2,"CCN1CCN(c2nc(-c3ccc(N4C[C@@H](C)O[C@@H](C)C4)nc3)cc3ccccc23)CC1 (as salt: hydrochloride) [Example 149, 3-[2-(2,6-dimethylmorpholin-4-yl)pyridin-5-yl]-1-(4-ethylpiperazin-1-yl)isoquinoline trihydrochloride]",180 °C
3,"CCN1CCN(c2nc(-c3ccc(N4CCSCC4)nc3)cc3ccccc23)CC1 (as salt: hydrochloride) [Example 150, 1-(4-ethylpiperazin-1-yl)-3-[2-(thiomorpholin-4-yl)pyridin-5-yl]isoquinoline trihydrochloride]",210 °C
4,"CCN1CCN(c2nc(-c3ccc(N4CC[S+]([O-])CC4)nc3)cc3ccccc23)CC1 (as salt: hydrochloride) [Example 151, 1-(4-ethylpiperazin-1-yl)-3-[2-(S-oxythiomorpholin-4-yl)pyridin-5-yl]isoquinoline trihydrochloride]",170 °C
5,"CCN1CCN(c2nc(-c3ccc(N4CCC(OC)CC4)nc3)cc3ccccc23)CC1 (as salt: hydrochloride) [Example 153, 1-(4-ethylpiperazin-1-yl)-3-[2-(4-methoxypiperidin-1-yl)pyridin-5-yl]isoquinoline trihydrochloride]",170 °C
6,"CCN1CCN(c2nc(-c3ccc(N4CCOCC4)cc3)cc3ccccc23)CC1 (as salt: hydrochloride) [Example 160, 3-[4-(4-morpholinyl)phenyl]-1-(4-ethylpiperazin-1-yl)isoquinoline dihydrochloride]",242 to 245 °C (dec.)
7,"CCN1CCN(c2nc(-c3cnc(N4CCOCC4)s3)cc3ccccc23)CC1 (as salt: hydrochloride) [Example 173, 1-(1-ethylpiperazin-4-yl)-3-[2-(4-morpholinyl)-5-thiazolyl]isoquinoline dihydrochloride]",265 °C (dec.)
8,"CCCC(=O)Nc1ncc(-c2cc3ccccc3c(N3CCN(CC)CC3)n2)cn1 (as salt: hydrochloride) [Example 174, 3-(2-Propylcarbonylaminopyrimidin-5-Yl)-1-(4-Ethylpiperazin-1-Yl)Isoquinoline Hydrochlroide]",216 to 219 °C
9,"CCN1CCN(c2nc(-c3ccc(C4=CCOCC4)s3)cc3ccccc23)CC1 (as salt: hydrochloride) [Example 176, 3-[2-(5,6-Dihydro-2H-Pyran-4-Yl)Thiophen-5-Yl]-1-[4-Ethylpiperazin-1-Yl)Isoquinoline Hydrochloride]",256 to 258 °C
10,"CCN1CCN(c2nc(C#Cc3ccccc3)cc3ccccc23)CC1 (as salt: hydrochloride) [Example 177, 1-(1-Ethylpiperazin-4-Yl)-3-(Phenylethynyl)Isoquinoline Dihydrochloride]",133 to 136 °C
11,"CCN1CCN(c2nc(C#CCCc3ccccc3)cc3ccccc23)CC1 (as salt: hydrochloride) [Example 182, 1-(1-Ethylpiperazin-4-Yl)-3-[4-Phenyl-1-Butynyl)Isoquinoline Dihydrochloride]",120 to 128 °C
12,"CCN1CCN(c2nc(C#Cc3ccc(OCCO)cc3)cc3ccccc23)CC1 (as salt: hydrochloride) [Example 183, 1-(1-Ethylpiperazin-4-Yl]-3-[4-(2-Hydroxyethoxy)Phenylethynyl]Isoquinoline Dihydrochloride]",205 to 208 °C
13,"CCN1CCN(c2nc(C#Cc3cncc(CCCOC)c3)cc3ccccc23)CC1 (as salt: hydrochloride) [Example 186, 1-(1-Ethylpiperazin-4-Yl)-3-[3-(3-Methoxypropyl)-5-Pyridyl]Ethynylisoquinoline]",135 to 140 °C
14,"CCN1CCN(c2nc(C#Cc3ncccc3OCCO)cc3ccccc23)CC1 (as salt: hydrochloride) [Example 188, 1-(1-Ethylpiperazin-4-Yl)-3-[3-(2-Hydroxyethoxy)-2-Pyridyl]Ethynylisoquinoline]",153 to 159 °C
15,"CCN1CCN(c2nc(/C=C/c3ccccc3)cc3ccccc23)CC1 (as salt: hydrochloride) [Example 189, 1-(1-Ethylpiperazin-4-Yl)-3-(Trans-2-Phenylethenyl)Isoquinoline Dihydrochloride]",222 to 225 °C
16,"CCN1CCN(c2nc(/C=C/c3ccc(S(C)(=O)=O)cc3)cc3ccccc23)CC1 (as salt: hydrochloride) [Example 201, 3-[(E)-2-(4-Methylsulfonylphenyl)Ethenyl]-1-(4-Ethylpiperazin-1-Yl)Isoquinoline Hydrochloride]",170 to 174 °C
17,"CCN1CCN(c2nc(/C=C/c3ccccn3)cc3ccccc23)CC1 (as salt: hydrochloride) [Example 209, 1-(1-Ethylpiperazin-4-Yl)-3-[Trans-2-(2-Pyridyl)Ethenyl]Isoquinoline Trihydrochloride]",220 °C (dec.)
18,"CCN1CCN(c2nc(C(=O)Nc3ccccc3)cc3ccccc23)CC1 (as salt: hydrochloride) [Example 218, 1-(ethylpiperazin-4-yl)-N-phenyl-3-isoquinolinecarboxamide dihydrochloride]",260 °C (dec.)

# Now from value to molecule:
row,melting point,SMILES
1,188 °C,"CCN1CCN(c2nc(-c3ccc(N4CCC(CO)CC4)nc3)cc3ccccc23)CC1 (as salt: hydrochloride) [Example 154, 1-(4-ethylpiperazin-1-yl)-3-[2-(4-hydroxymethylpiperidin-1-yl)pyridin-5-yl]isoquinoline trihydrochloride]"
2,170 °C,"CCN1CCN(c2nc(-c3csc(CO)c3)cc3ccccc23)CC1 (as salt: hydrochloride) [Example 161, 1-(1-ethylpiperazin-4-yl)-3-(2-hydroxymethylthiophen-4-yl)isoquinoline dihydrochloride]"
3,230 °C (dec.),"CCN1CCN(c2nc(C#Cc3ccc(OC)cc3)cc3ccccc23)CC1 (as salt: hydrochloride) [Example 178, 1-(1-Ethylpiperazin-4-Yl)-3-(4-Methoxyphenyl)Ethynylisoquinoline Dihydrochloride]"
4,227 °C (dec.),"CCN1CCN(c2nc(/C=C/c3ccc(OC)cc3)cc3ccccc23)CC1 (as salt: hydrochloride) [Example 190, 1-(1-Ethylpiperazin-4-Yl)-3-[Trans-2-(4-Methoxyphenyl)Ethenyl]Isoquinoline Dihydrochloride]"
5,227 to 235 °C,"CCN1CCN(c2nc(-c3ccc(OC)cc3)c(OC)c3ccccc23)CC1 (as salt: hydrochloride) [Example 221, 1-(1-ethylpiperazin-4-yl)-4-methoxy-3-(4-methoxyphenyl)isoquinoline dihydrochloride]"
6,152 to 170 °C,"CCN1CCN(c2nc(-c3ccc(OCCO)cc3)cc3cc(F)ccc23)CC1 (as salt: hydrochloride) [Example 223, 1-(4-ethylpiperazin-1-yl)-3-[4-(2-hydroxyethoxy)phenyl]-6-fluoroisoquinoline dihydrochloride]"
7,220 to 225 °C,"CCN1CCN(c2nc(-c3ccc(OC)cc3)cc3ccc(F)cc23)CC1 (as salt: hydrochloride) [Example 229, 1-(4-ethylpiperazin-1-yl)-7-fluoro-3-(4-methoxyphenyl)isoquinoline dihydrochloride]"
8,222 to 227 °C,"CCN1CCN(c2nc(-c3ccc(OC)cc3)cc3cccc(F)c23)CC1 (as salt: hydrochloride) [Example 233, 1-(1-ethylpiperazin-4-yl)-8-fluoro-3-(4-methoxyphenyl)isoquinoline dihydrochloride]"
9,215 to 219 °C,"CCN1CCN(c2nc(-c3ccc(OCCO)cc3)cc3cccc(F)c23)CC1 (as salt: hydrochloride) [Example 234, 1-(1-ethylpiperazin-4-yl)-8-fluoro-3-[4-(2-hydroxyethoxy)phenyl]isoquinoline dihydrochloride]"
10,138 to 143 °C,"COc1ccc(-c2cc3ccccc3c(N3CCN(C4CC4)CC3)n2)cc1 (as salt: hydrochloride) [Example 239, 1-(1-cyclopropylpiperaziin-4-yl)-3-(4-methoxyphenyl)isoquinoline dihydrochloride]"
11,111 to 116 °C,"C=CCN1CCN(c2nc(-c3ccc(OC)cc3)cc3ccccc23)CC1 (as salt: hydrochloride) [Example 240, 1-(1-allylpiperazin-4-yl)-3-(4-methoxyphenyl)isoquinoline dihydrochloride]"
12,163 to 165 °C,"COc1ccc(-c2cc3ccccc3c(N3CCN(CCO)CC3)n2)cc1 (as salt: hydrochloride) [Example 242, 1-[4-(2-hydroxyethyl)piperazin-1-yl]-3-(4-methoxyphenyl)isoquinoline Dihydrochloride]"
13,171 to 174 °C,"CCS(=O)(=O)NCc1ccc(-c2cc3ccccc3c(N3CCN(CCO)CC3)n2)cc1 (as salt: hydrochloride) [Example 243, 3-(4-ethylsulfonylaminomethylphenyl)-1-[4-(2-hydroxyethyl)piperazin-1-yl]isoquinoline Hydrochloride]"
14,137 to 143 °C,"CCN1CCN(c2nc(-c3ccc(OCCO)cc3)cc3cccnc23)CC1 (as salt: hydrochloride) [Example 245, 8-(1-ethylpiperazin-4-yl)-6-[4-(2-hydroxyethoxy)phenyl]-1,7-naphthyridine Dihydrochloride]"
15,119 to 122 °C,"CCN1CCN(c2nc(-c3ccc(CCCO)cc3)cc3cccnc23)CC1 (as salt: hydrochloride) [Example 247, 8-(1-ethylpiperazin-4-yl)-6-[4-(3-hydroxypropyl)phenyl]-1,7-naphthyridine Dihydrochloride]"
16,118 to 121 °C,"CCN1CCN(c2nc(-c3ccc(CCC(C)O)cc3)cc3cccnc23)CC1 (stereo not shown) (as salt: hydrochloride) [Example 248, 8-(1-ethylpiperazin-4-yl)-6-[4-(3-hydroxybutyl)phenyl]-1,7-naphthyridine Dihydrochloride]"

# — patent publication US6875761B2 (Eisai Co., Ltd., priority 1997, dated 2005)
